pIC50: −log10 of the molar value.
Assays:
[1] = target: HDAC; assay: Assay of enzyme inhibition of HDAC (BIOMOL kit, fluorescence); type: biochemical; conditions: nuclear fraction of Hela cells; substrate 200 µM; 15 min at RT
Method: The in-vitro activity of HDAC inhibitors was assayed using a BIOMOL Kit, according to the instructions from the manufacturer (Biomolecular Research Laborator). 15 µl of 30 x diluted nuclear fraction of Hela cells, was diluted to 50 µl with the assay buffer containing the HDAC inhibitor and the substrate (lysine with acetylated amino group on the side chain) at a concentration of 200 µM. The samples were incubated for 15 min at RT and then exposed to a developer (10 min at RT). In this last step a fluorophore was produced, whose fluorescence was measured using an excitation wavelength of 355 nm and an emission at 460 nm. The IC50 was calculated using GraphPad Software.

[2] = system: K562; assay: Cell growth, CellTiter-Glo Luminescent Cell Viability Assay (antiproliferative assay); type: cell-based; conditions: Homo sapiens; K562 cells, incubated for 72 h
From the text: (§1) CellTiter-Glo® Luminescent Cell Viability Assay (Promega) is a homogeneous method of determining the number of viable cells in culture based on quantitation of the present ATP, which indicates the presence of metabolically active cells. The homogeneous assay procedure involves addition of a single reagent (CellTiter-Glo® Reagent) directly to the cells, which leads to cell lysis and generation of a luminescent signal proportional to the amount of the ATP and the number of cells present in culture. The assay relies on the properties of a proprietary thermostable luciferase (Ultra-Glo® recombinant luciferase), which generates a luminescent signal. K562, A549, and HCT-116 cells, in exponential growth, were incubated for 72 h with different concentrations of the inhibitors. After 72 h, a volume of CellTiter-Glo® Reagent equal to the volume of cell culture medium was added. The content was mixed for 2 min to induce cell lysis. The luminescence was recorded after further 10 min at RT in order to obtain a stable luminescent signal.
(§2) The IC50 was calculated using GraphPad Software.

[3] = system: A549; assay: as above; type: cell-based; conditions: Homo sapiens; A549 cells, incubated for 72 h
From the text: as §1, §2

[4] = system: HCT-116; assay: as above; type: cell-based; conditions: Homo sapiens; HCT-116 cells, incubated for 72 h; read-out: HCT116 IC50
From the text: as §1, §2

| Structure (SMILES) | pIC50 [1] | pIC50 [2] | pIC50 [3] | pIC50 [4] |
| --- | --- | --- | --- | --- |
| O=C(/C=C/c1ccc2c(c1)C(=O)CC1(CCNC1)O2)NO (racemic) [Example 1, (±)-(E)-3-[4-Oxo-spiro(chromane-2,3'-pyrrolidine)-6-yl]-N-hydroxy-acrylamide] | 6.00 to 7.00 | ≤ 5.52 | 5.52 to 6.00 | 5.52 to 6.00 |
| O=C(/C=C/c1ccc2c(c1)C(=O)CC1(CCN(Cc3ccccc3)C1)O2)NO (racemic) [Example 2, (±)-(E)-3-[1'-Benzyl-4-oxo-spiro(chromane-2,3'-pyrrolidine)-6-yl]-N-hydroxy-acrylamide] | ≥ 7.00 | ≥ 6.00 | ≥ 6.00 | ≥ 6.00 |
| CC(=O)N1CCC2(CC(=O)c3cc(/C=C/C(=O)NO)ccc3O2)C1 (racemic) [Example 5, (±)-(E)-3-[1'-Acetyl-4-oxo-spiro(chromane-2,3'-pyrrolidine)-6-yl]-N-hydroxy-acrylamide] | 6.00 to 7.00 | ≤ 5.52 | ≤ 5.52 | ≤ 5.52 |
| O=C(/C=C/c1ccc2c(c1)C(=O)CC1(CCN(C(=O)c3ccccc3)C1)O2)NO (racemic) [Example 6, (±)-(E)-3-[1'-Benzoyl-4-oxo-spiro(chromane-2,3'-pyrrolidine)-6-yl]-N-hydroxy-acrylamide] | 6.00 to 7.00 | ≥ 6.00 | 5.52 to 6.00 | ≥ 6.00 |
| CN1CCC2(CC(=O)c3cc(/C=C/C(=O)NO)ccc3O2)C1 (racemic) [Example 7, (±)-(E)-3-[1'-Methyl-4-oxo-spiro(chromane-2,3'-pyrrolidine)-6-yl]-N-hydroxy-acrylamide] | 6.00 to 7.00 | ≥ 6.00 | ≥ 6.00 | ≥ 6.00 |
| CCOC(=O)N1CCC2(CC(=O)c3cc(/C=C/C(=O)NO)ccc3O2)C1 (racemic) [Example 8, (±)-(E)-3-[1'-Ethyloxycarbonyl-4-oxo-spiro(chromane-2,3'-pyrrolidine)-6-yl]-N-hydroxy-acrylamide] | 6.00 to 7.00 | ≥ 6.00 | ≥ 6.00 | ≥ 6.00 |
| O=C(/C=C/c1ccc2c(c1)C(=O)CC1(CCN(CCc3ccccc3)C1)O2)NO (racemic) [Example 9, (±)-(E)-3-[1'-(2-Phenyl-ethyl)-4-oxo-spiro(chromane-2,3'-pyrrolidine)-6-yl]-N-hydroxy-acrylamide] | ≥ 7.00 | ≥ 6.00 | ≥ 6.00 | ≥ 6.00 |
| Cn1cc(CN2CCC3(CC(=O)c4cc(/C=C/C(=O)NO)ccc4O3)C2)c2ccccc21 (racemic) [Example 10, (±)-(E)-3-[1'-(1-Methyl-1H-indol-3-ylmethyl)-4-oxo-spiro(chromane-2,3'-pyrrolidine)-6-yl]-N-hydroxy-acrylamide] | ≥ 7.00 | ≥ 6.00 | ≥ 6.00 | ≥ 6.00 |
| O=C(/C=C/c1ccc2c(c1)C(=O)CC1(CCN(Cc3ccc(F)cc3)C1)O2)NO (racemic) [Example 11, (±)-(E)-3-[1'-(4-Fluoro-benzyl)-4-oxo-spiro(chromane-2,3'-pyrrolidine)-6-yl]-N-hydroxy-acrylamide] | 6.00 to 7.00 | ≥ 6.00 | ≥ 6.00 | ≥ 6.00 |
| O=C(/C=C/c1ccc2c(c1)C(=O)CC1(CCCNC1)O2)NO (racemic) [Example 12, (±)-(E)-3-[4-Oxo-spiro(chromane-2,3'-piperidine)-6-yl]-N-hydroxy-acrylamide] | 6.00 to 7.00 | ≥ 6.00 | ≥ 6.00 | ≥ 6.00 |
| O=C(/C=C/c1ccc2c(c1)C(=O)CC1(CCCN(Cc3ccccc3)C1)O2)NO (racemic) [Example 13, (±)-(E)-3-[1'-Benzyl-4-oxo-spiro(chromane-2,3'-piperidine)-6-yl]-N-hydroxy-acrylamide] | ≥ 7.00 | ≥ 6.00 | ≥ 6.00 | ≥ 6.00 |
| CN1CCCC2(CC(=O)c3cc(/C=C/C(=O)NO)ccc3O2)C1 (racemic) [Example 14, (±)-(E)-3-[1'-Methyl-4-oxo-spiro(chromane-2,3'-piperidine)-6-yl]-N-hydroxy-acrylamide] | 6.00 to 7.00 | ≥ 6.00 | ≥ 6.00 | ≥ 6.00 |
| CCOC(=O)N1CCCC2(CC(=O)c3cc(/C=C/C(=O)NO)ccc3O2)C1 (racemic) [Example 15, (±)-(E)-3-[1'-Ethyloxycarbonyl-4-oxo-spiro(chromane-2,3'-piperidine)-6-yl]-N-hydroxy-acrylamide] | 6.00 to 7.00 | ≥ 6.00 | 5.52 to 6.00 | ≥ 6.00 |
| CC(=O)N1CCCC2(CC(=O)c3cc(/C=C/C(=O)NO)ccc3O2)C1 (racemic) [Example 16, (±)-(E)-3-[1'-Acetyl-4-oxo-spiro(chromane-2,3'-piperidine)-6-yl]-N-hydroxy-acrylamide] | 6.00 to 7.00 | ≤ 5.52 | ≤ 5.52 | ≤ 5.52 |
| O=C(/C=C/c1ccc2c(c1)C(=O)CC1(CCCN(Cc3ccc(F)cc3)C1)O2)NO (racemic) [Example 19, (±)-(E)-3-[1'-(4-Fluoro-benzyl)-4-oxo-spiro(chromane-2,3'-piperidine)-6-yl]-N-hydroxy-acrylamide] | ≥ 7.00 | ≥ 6.00 | 5.52 to 6.00 | ≥ 6.00 |
| O=C(/C=C/c1ccc2c(c1)C(=O)CC1(CCCN(CCc3ccccc3)C1)O2)NO (racemic) [Example 20, (±)-(E)-3-[1'-(2-Phenyl-ethyl)-4-oxo-spiro(chromane-2,3'-piperidine)-6-yl]-N-hydroxy-acrylamide] | ≥ 7.00 | ≥ 6.00 | ≥ 6.00 | ≥ 6.00 |
| O=C(/C=C/c1ccc2c(c1)C(=O)CC1(CCCN(C(=O)c3ccccc3)C1)O2)NO (racemic) [Example 21, (±)-(E)-3-[1'-Benzoyl-4-oxo-spiro(chromane-2,3'-piperidine)-6-yl]-N-hydroxy-acrylamide] | 6.00 to 7.00 | 5.52 to 6.00 | ≤ 5.52 | 5.52 to 6.00 |
| O=C(/C=C/c1ccc2c(c1)C(=O)CC1(CCCNCC1)O2)NO (racemic) [Example 22, (±)-(E)-3-[4-Oxo-spiro(chromane-2,4'-azepane)-6-yl]-N-hydroxy-acrylamide] | 6.00 to 7.00 | ≤ 5.52 | ≤ 5.52 | 5.52 to 6.00 |
| O=C(/C=C/c1ccc2c(c1)C(=O)CC1(CCCN(Cc3ccccc3)CC1)O2)NO (racemic) [Example 23, (±)-(E)-3-[1'-Benzyl-4-oxo-spiro(chromane-2,4'-azepane)-6-yl]-N-hydroxy-acrylamide] | ≥ 7.00 | ≥ 6.00 | ≥ 6.00 | ≥ 6.00 |
| CC(=O)N1CCCC2(CC1)CC(=O)c1cc(/C=C/C(=O)NO)ccc1O2 (racemic) [Example 24, (±)-(E)-3-[1'-Acetyl-4-oxo-spiro(chromane-2,4'-azepane)-6-yl]-N-hydroxy-acrylamide] | 6.00 to 7.00 | ≤ 5.52 | ≤ 5.52 | ≤ 5.52 |
| Cn1cc(CN2CCCC3(CC2)CC(=O)c2cc(/C=C/C(=O)NO)ccc2O3)c2ccccc21 (racemic) [Example 47, (±)-(E)-3-[1'-(1-Methyl-1H-indol-3-ylmethyl)-4-oxo-spiro(chromane-2,4'-azepane)-6-yl]-N-hydroxy-acrylamide] | 6.00 to 7.00 | – | – | – |
| CCN1CCCC2(CC(=O)c3cc(/C=C/C(=O)NO)ccc3O2)C1 (racemic) [Example 48, (±)-(E)-3-[1'-Ethyl-4-oxo-spiro(chromane-2,3'-piperidine)-6-yl]-N-hydroxy-acrylamide] | 6.00 to 7.00 | – | – | – |

Reference: patent EP2488529B1, “Spirocyclic derivatives as histone deacetylase inhibitors” (DAC S.r.l., priority 2009, dated 2011)
